Test results reported in patent US20110183963A1 (priority 2009, published 2011).

Tests used:
5-HT1A receptor = molecular target: T1, 5-HT1A receptor (Homo sapiens, UniProt P08908); details: relative to quetiapine; cited from earlier work
T1 sequence (P08908 1-422): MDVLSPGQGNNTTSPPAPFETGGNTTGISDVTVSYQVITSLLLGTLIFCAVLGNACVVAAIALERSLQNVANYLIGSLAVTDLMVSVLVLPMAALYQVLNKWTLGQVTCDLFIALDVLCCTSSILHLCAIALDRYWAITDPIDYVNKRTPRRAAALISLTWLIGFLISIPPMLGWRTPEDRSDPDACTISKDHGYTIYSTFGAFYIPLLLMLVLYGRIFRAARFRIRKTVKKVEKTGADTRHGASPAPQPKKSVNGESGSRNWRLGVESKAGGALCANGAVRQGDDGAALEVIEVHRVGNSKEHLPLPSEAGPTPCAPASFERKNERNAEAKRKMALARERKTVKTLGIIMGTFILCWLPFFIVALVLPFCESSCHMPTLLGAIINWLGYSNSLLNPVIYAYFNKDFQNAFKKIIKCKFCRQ

human NET = human NET (Homo sapiens, UniProt P23975); details: relative to quetiapine; cited from earlier work
Sequence of human NET (P23975 whole entry): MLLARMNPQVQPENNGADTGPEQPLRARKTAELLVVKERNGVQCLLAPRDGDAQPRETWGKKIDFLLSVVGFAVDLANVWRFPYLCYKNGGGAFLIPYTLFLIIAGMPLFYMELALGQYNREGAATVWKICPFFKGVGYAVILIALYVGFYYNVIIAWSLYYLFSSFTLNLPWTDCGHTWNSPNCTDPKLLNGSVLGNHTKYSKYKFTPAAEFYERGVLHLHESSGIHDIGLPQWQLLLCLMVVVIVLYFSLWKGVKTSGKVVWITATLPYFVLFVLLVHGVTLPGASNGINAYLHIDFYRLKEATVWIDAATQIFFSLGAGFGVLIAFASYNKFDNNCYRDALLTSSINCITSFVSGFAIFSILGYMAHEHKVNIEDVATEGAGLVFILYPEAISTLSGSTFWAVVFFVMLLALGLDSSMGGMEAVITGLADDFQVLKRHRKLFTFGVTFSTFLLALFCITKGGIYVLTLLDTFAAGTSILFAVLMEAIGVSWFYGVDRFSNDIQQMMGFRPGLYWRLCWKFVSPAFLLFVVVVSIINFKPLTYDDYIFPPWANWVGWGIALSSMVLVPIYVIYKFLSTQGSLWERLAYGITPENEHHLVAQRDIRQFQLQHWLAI

[1] = to be dosed efficiently via oral gavage in rats
[2] = cited from earlier work
leptin = details: chronic oral administration for a period of 6 weeks; cited from earlier work

For `c1ccc2c(c1)N=C(N1CCNCC1)c1ccccc1S2` [N-desalkyl-quetiapine, 4-(dibenzo[b,f][1,4]thiazepin-11-yl)piperazine], the “more potent than quetiapine at the 5-HT1A receptor” value (5-HT1A receptor) is given as 10 fold and the “higher avidity for inhibiting human NET than quetiapine itself” value (human NET) is given as “about 100 fold”.

In the case of `OCCOCCN1CCN(C2=Nc3ccccc3Sc3ccccc32)CC1` [fumarate], the “solubility for oral gavage dosing” value [1] is reported as “not soluble enough”.

For `OCCOCCN1CCN(C2=Nc3ccccc3Sc3ccccc32)CC1` [quetiapine, 2-(2-(4-(dibenzo[b,f][1,4]thiazepin-11-yl)piperazin-1-yl)ethoxy)ethanol], the Absolute bioavailability ([2]; estimated) is given as 9%, the “terminal half-life time for the drug's elimination” value ([2]; in vivo) is given as “about 7 hours” and the “increase in leptin release” value (leptin) is given as “about 37%”.
